Source: the supplement of paper PMC10307832

Columns and labels:
Assay in all cases: relative viability (nuclei count vs DMSO), 5 days (fraction); higher = more cells survive
Alisertib + Vorinostat = compound: COc1cc(Nc2ncc3c(n2)-c2ccc(Cl)cc2C(c2c(F)cccc2OC)=NC3)ccc1C(=O)O [Alisertib] + O=C(CCCCCCC(=O)Nc1ccccc1)NO [Vorinostat] (partner 1 µM)
Outline: (§1)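 Cells from lung cancer lines were seeded into 1536-well plates and, one day later, dosed by pin tool. Treatments were either a single drug or a fixed dose of an anchor drug with five library-drug doses (not always all listed) in √10 steps. After 5 days, nuclei were stained in a one-step fixation (final 0.05% Triton X-100, 1% formaldehyde, 1 ug/ml Hoechst) and counted on 4× images, and relative viability is the treated-to-vehicle nuclei ratio, as the median of duplicate plates.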

Alisertib + Linsitinib = compound: COc1cc(Nc2ncc3c(n2)-c2ccc(Cl)cc2C(c2c(F)cccc2OC)=NC3)ccc1C(=O)O [Alisertib] + C[C@]1(O)C[C@@H](c2nc(-c3ccc4ccc(-c5ccccc5)nc4c3)c3c(N)nccn32)C1 [Linsitinib] (partner 1 µM)
Outline: as §1

Alisertib + Alpelisib = compound: COc1cc(Nc2ncc3c(n2)-c2ccc(Cl)cc2C(c2c(F)cccc2OC)=NC3)ccc1C(=O)O [Alisertib] + Cc1nc(NC(=O)N2CCC[C@H]2C(N)=O)sc1-c1ccnc(C(C)(C)C(F)(F)F)c1 [Alpelisib] (partner 2 µM)
Outline: as §1

Alisertib + Navitoclax = compound: COc1cc(Nc2ncc3c(n2)-c2ccc(Cl)cc2C(c2c(F)cccc2OC)=NC3)ccc1C(=O)O [Alisertib] + CC1(C)CCC(c2ccc(Cl)cc2)=C(CN2CCN(c3ccc(C(=O)NS(=O)(=O)c4ccc(N[C@H](CCN5CCOCC5)CSc5ccccc5)c(S(=O)(=O)C(F)(F)F)c4)cc3)CC2)C1 [Navitoclax] (partner 0.5 µM)
Outline: as §1

Row | Cell Line | relative viability (Alisertib + Vorinostat; first compound 0.005 µM) | relative viability (Alisertib + Vorinostat; first compound 0.01581 µM) | relative viability (Alisertib + Vorinostat; first compound 0.05 µM) | relative viability (Alisertib + Vorinostat; first compound 0.1581 µM) | relative viability (Alisertib + Vorinostat; first compound 0.5 µM) | relative viability (Alisertib + Linsitinib; first compound 0.005 µM) | relative viability (Alisertib + Linsitinib; first compound 0.01581 µM) | relative viability (Alisertib + Linsitinib; first compound 0.05 µM) | relative viability (Alisertib + Linsitinib; first compound 0.1581 µM) | relative viability (Alisertib + Linsitinib; first compound 0.5 µM) | relative viability (Alisertib + Alpelisib; first compound 0.005 µM) | relative viability (Alisertib + Alpelisib; first compound 0.01581 µM) | relative viability (Alisertib + Alpelisib; first compound 0.05 µM) | relative viability (Alisertib + Alpelisib; first compound 0.1581 µM) | relative viability (Alisertib + Alpelisib; first compound 0.5 µM) | relative viability (Alisertib + Navitoclax; first compound 0.005 µM) | relative viability (Alisertib + Navitoclax; first compound 0.01581 µM) | relative viability (Alisertib + Navitoclax; first compound 0.05 µM) | relative viability (Alisertib + Navitoclax; first compound 0.1581 µM) | relative viability (Alisertib + Navitoclax; first compound 0.5 µM)
1 | NCI-H2085 | 0.73 | 0.771 | 0.431 | 0.441 | 0.448 | 0.876 | 0.85 | 0.516 | 0.389 | 0.281 | 0.892 | 0.91 | 0.465 | 0.352 | 0.314 | 1.15 | 1.03 | 0.401 | 0.278 | 0.247
2 | IA-LM | 0.986 | 0.87 | 0.564 | 0.189 | 0.0645 | 0.478 | 0.659 | 0.324 | 0.223 | 0.0931 | 0.407 | 0.739 | 0.462 | 0.247 | 0.0598 | 0.654 | 0.59 | 0.313 | 0.164 | 0.0604
3 | H3255 | 0.8 | 0.822 | 0.656 | 0.337 | 0.264 | 0.898 | 0.832 | 0.418 | 0.192 | 0.164 | 0.797 | 0.687 | 0.463 | 0.252 | 0.199 | 0.484 | 0.415 | 0.355 | 0.0997 | 0.0929
4 | LOU-NH91 | 0.834 | 0.821 | 0.602 | 0.422 | 0.371 | 0.977 | 0.941 | 0.818 | 0.491 | 0.403 | 0.728 | 0.762 | 0.635 | 0.442 | 0.409 | 0.79 | 0.731 | 0.551 | 0.326 | 0.271
5 | NCI-H3122 | 0.891 | 0.79 | 0.799 | 0.282 | 0.186 | 1.02 | 0.905 | 0.571 | 0.467 | 0.245 | 0.741 | 0.747 | 0.472 | 0.295 | 0.211 | 1.04 | 0.992 | 0.664 | 0.592 | 0.237
6 | RERF-LC-KJ | 0.626 | 0.507 | 0.391 | 0.252 | 0.213 | 0.92 | 0.789 | 0.581 | 0.207 | 0.227 | 0.819 | 0.823 | 0.622 | 0.283 | 0.196 | 1.06 | 0.838 | 0.415 | 0.178 | 0.284
7 | NCI-H1651 | 0.517 | 0.461 | 0.325 | 0.118 | 0.135 | 0.843 | 0.774 | 0.451 | 0.217 | 0.22 | 0.867 | 0.87 | 0.533 | 0.289 | 0.187 | 1.01 | 0.832 | 0.517 | 0.14 | 0.2
8 | NCI-H2087 | 0.758 | 0.667 | 0.173 | 0.106 | 0.133 | 0.866 | 0.669 | 0.276 | 0.236 | 0.228 | 0.939 | 0.816 | 0.226 | 0.203 | 0.171 | 0.868 | 0.742 | 0.164 | 0.153 | 0.153
